These results are taken from patent US6589766B1, “Aldol consensations by catalytic antibodies” (The Scripps Research Institute, priority 1997, dated 2003).

For series [1] the following is noted: cited from earlier work; for pKa of the amino group: free in aqueous solution / water.
Series [2] relates to aldolase antibodies 38C2 and 33F12. Briefly: inhibition of antibody aldolase activity by β-diketones. Type of series: biochemical. The protocol:
For ease of comparison we determined specific rates for these reactions under the following defined conditions: 1 M of donor, 500 mM of aldehyde 4 and 0.4 mol-% of antibody . […] A large variety of other ketones were also studied with aldehyde 4 with monitoring of the consumption of 4 and appearance of a new peak tentatively assigned as the β-hydroxyketone product. The antibody catalyzed aldol reactions were inhibited by addition of equimolar amounts of the hapten 1 or 2,4-pentanedione. Further control experiments were carried out using lysine or bovine serum albumin instead of the antibodies. […] Further study of mixed solvent systems may allow conditions to be defined where substrates such as these are accepted by the catalyst. Of the ketones studied, reactions involving hydroxyacetone as the donor were the most efficient.
No background reaction for the overall conversion of cyclopentanone to 35 in the absence of antibody could be observed following extended incubation for 2 months.
The reaction of 3-methyl-2,4-pentanedione was monitored spectrophotometrically by following the absorption of the antibody-enamine complex 3 now at 335 nm. […] Study of the dependence of the rate of enamine formation on pH with 2,4-pentanedione yielded the same pKa.

Series [3] is described as follows: control aldol reactions using lysine or bovine serum albumin instead of the antibodies. The note with it: used instead of the antibodies. Type of series: biochemical. The protocol:
For ease of comparison we determined specific rates for these reactions under the following defined conditions: 1 M of donor, 500 mM of aldehyde 4 and 0.4 mol-% of antibody .

Series [4] in a line: amine catalyzed retro-aldolization of 59 in aqueous buffer and n-octanol. Type of series: biochemical. The source says:
Therefore the second order rate constants for n-butylamine and aminoacetonitrile catalyzed retro-aldolization of 59 where determined in aqueous buffer and n-octanol. […] The pka's of n-butylamine and aminoacetonitrile in water are 10.61 and 5.34 (Hupe, D. J.; Kendall, M. C. R.; Spencer, T. A. J. Am. Chem. Soc. 1972, 94, 1254). […] Antibody 38C2 provides a 106-108 fold enhancement of the efficiency of the retro-aldol reaction of 59 as compared to the non-enzymic amine catalyzed reactions in either aqueous or organic media. […] The effectiveness of the active site amine of 38C2 is also indicated by effective molarities between 560 and 35,000 M depending on the amine and solvent system studied.
The activation energy for this reaction should be […] in nonpolar solvents such as the active site of the antibody and n-octanol since the reaction involves charge dispersal in the transition state. A polar medium would be expected to stabilize the cationic iminium intermediates to a greater extent than the activated complex. (Reichardt, C., in Solvents and Solvents Effects in Organic Chemistry Ebel, H. F., Wentrup-Byne, E., Eds.; New York, N.Y., 1990, 2nd eddition, pp1-511; Heathcock, C. H. Stereoselective Aldol Condensations, in E. Buncel and T. Durst (eds): Comprehensive Carbanion Chemistry. Part B, P. 177ff. (particularly p. 198), Elsevier, Amsterdam 1984).

Regarding `CC(=O)CC(C)=O` [2,4-pentanedione], in series [1], the “pKa of the protons at the 3 position” value is recorded as 8.87. In series [2] (elimination from 36 to 35), the “inhibition of ab 38C2 catalyzed elimination” value is “inhibited”. The “inhibition of antibody catalyzed aldol reactions” value in series [2] (equimolar amounts) is “inhibited”. For `CC(=O)C(C)C(C)=O` [3-methyl-2,4-pentanedione], in series [1], the “pKa of the protons at the 3 position” value is on record as 10.65. Also, in series [2] (stoichiometric reaction forming stable vinylogous amides), the “inhibition of aldolase activity” value is given as “completely inhibiting aldolase activity”. In the case of `N#CCN` [aminoacetonitrile], in series [1], the “pKa of the amino group” value is 5.34. For `NCCCC[C@H](N)C(=O)O` [lysine], the “catalysis of the aldol reactions” value in series [3] is listed as “No catalysis”. The “pKa of the amino group” value in series [1] is “around 10.5”.

Regarding `CCCCN` [n-butylamine], the “pKa of the amino group” value in series [1] is 10.61. Further, the “catalysis in n-octanol compared to catalysis in aqueous solution” value in series [4] is reported as 63 fold. “bovine serum albumin: control protein used instead of the antibodies”: in series [3], the “catalysis of the aldol reactions” value was “No catalysis”.
